Here are results for 20 molecules from patent publication US9487490B2, “3-cyclohexenyl and cyclohexyl substituted indole and indazole compounds as RORgammaT inhibitors and uses thereof” (Merck Sharp & Dohme Corp., priority 2012, dated 2016).

The target in the test is human RORgammaT-Ligand Binding Domain (LBD) (Homo sapiens (Human), UniProt P51449). Nature of the test: RORγ-Ligand Binding Domain TR-FRET assay (co-activator peptide SRC1_2 recruitment). It counts as biochemical. Particulars: HIS-tagged RORγ-LBD 3 nM, biotinylated SRC1 LXXLL peptide 100 nM, incubated overnight at 4° C., 665 nm/615 nm signal quotient; read-out: Fret IC50. An excerpt: Activation of RORgammaT activity can be measured using, e.g., biochemical TR-FRET assay. In such an assay, interaction of cofactor-derived peptides with human RORgammaT-Ligand Binding Domain (LBD) can be measured.
human RORgammaT-Ligand Binding Domain (LBD), sequence (P51449 269-508): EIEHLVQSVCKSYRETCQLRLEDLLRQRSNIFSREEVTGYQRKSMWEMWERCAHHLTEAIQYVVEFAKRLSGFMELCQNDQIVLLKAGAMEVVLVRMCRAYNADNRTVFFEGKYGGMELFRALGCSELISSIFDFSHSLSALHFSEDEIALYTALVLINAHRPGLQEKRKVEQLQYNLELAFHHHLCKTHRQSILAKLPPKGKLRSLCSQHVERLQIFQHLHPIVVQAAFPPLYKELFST
To identify novel antagonists of RORgammaT, an assay was developed which employs the interaction of RORgammaT with its co-activator peptide SRC1_2. […] The RORγ-Ligand Binding Domain TR-FRET Assay was run according to the following protocol.
HIS-tagged RORγ-LBD protein was expressed in SF9 cells using a baculovirus expression system. The RORγ-LBD protein was purified by glutathione sepharose chromatography. Separately, SF9 cells not expressing any recombinant protein were lysed and the lysate was added to the purified RORγ-LBD at 0.25 μl lysate (from 10,000 SF9 cells)/nM purified protein. The mixture was then diluted in assay buffer (50 mM Tris pH 7.0, 50 mM KCl, 1 mM EDTA, 0.1 mM DTT) to obtain RORγ-LBD final concentration of 3 nM in 384-well assay plate.
Compounds to be tested were injected to the assay plate using Acoustic Droplet Ejection technology by Echo 550 liquid handler (Labcyte, Calif.).
(In general: In TR-FRET formats the signal depends on donor and acceptor labels being close together.)
`O=C(O)C1CC=C(c2nn(C(=O)c3c(Cl)cccc3C(F)(F)F)c3cc(C(=O)N4CCCC4)ccc23)CC1` (centres unmarked) [Example 4F, 4-(1-(2-chloro-6-(trifluoromethyl)benzoyl)-6-(pyrrolidine-1-carbonyl)-1H-indazol-3-yl)cyclohex-3-enecarboxylic acid]: the 50% inhibitory concentration (IC50) – broadly, the point on the concentration scale where inhibition reaches its midpoint – is 30 nM.
For `C[C@H]1CCCN1C(=O)c1ccc2c(C3=CCC(C(=O)O)CC3)nn(C(=O)c3c(Cl)cccc3C(F)(F)F)c2c1` (stereo partly drawn) [Example 4G, 4-(1-(2-chloro-6-(trifluoromethyl)benzoyl)-6-((S)-2-methylpyrrolidine-1-carbonyl)-1H-indazol-3-yl)cyclohex-3-enecarboxylic acid], the half-inhibitory concentration (IC50) amounted to 6 nM.
For the molecule `C[C@@H]1CCCN1C(=O)c1ccc2c(C3=CCC(C(=O)O)CC3)nn(C(=O)c3c(Cl)cccc3C(F)(F)F)c2c1` (stereo partly drawn) [Example 4H, 4-(1-(2-chloro-6-(trifluoromethyl)benzoyl)-6-((R)-2-methylpyrrolidine-1-carbonyl)-1H-indazol-3-yl)cyclohex-3-enecarboxylic acid], the IC50 was 115 nM.
As to `CC1CN(C(=O)c2ccc3c(C4=CCC(C(=O)O)CC4)nn(C(=O)c4c(Cl)cccc4C(F)(F)F)c3c2)CCO1` (centres unmarked) [Example 4J, 4-(1-(2-chloro-6-(trifluoromethyl)benzoyl)-6-(2-methylmorpholine-4-carbonyl)-1H-indazol-3-yl)cyclohex-3-enecarboxylic acid], the half-inhibitory concentration (IC50) was determined as 24 nM.
With `CN(C(=O)c1ccc2c(C3=CCC(C(=O)O)CC3)nn(C(=O)c3c(Cl)cccc3C(F)(F)F)c2c1)C1CCCCC1` (centres unmarked) [Example 4K, 4-(1-(2-chloro-6-(trifluoromethyl)benzoyl)-6-(cyclohexyl(methyl)carbamoyl)-1H-indazol-3-yl)cyclohex-3-enecarboxylic acid], the 50% inhibitory concentration (IC50) was found to be 94 nM.
In the case of `O=C(O)C1CC=C(c2nn(C(=O)c3c(Cl)cccc3C(F)(F)F)c3cc(C(=O)N4CCOCC4)ccc23)CC1` (centres unmarked) [Example 4L, 4-(1-(2-chloro-6-(trifluoromethyl)benzoyl)-6-(morpholine-4-carbonyl)-1H-indazol-3-yl)cyclohex-3-enecarboxylic acid], the IC50 amounted to 36 nM.
`C[C@@H]1CN(C(=O)c2ccc3c(C4=CCC(C(=O)O)CC4)nn(C(=O)c4c(Cl)cccc4C(F)(F)F)c3c2)C[C@H](C)O1` (stereo partly drawn) [Example 4M, 4-(1-(2-chloro-6-(trifluoromethyl)benzoyl)-6-((2R,6S)-2,6-dimethylmorpholine-4-carbonyl)-1H-indazol-3-yl)cyclohex-3-enecarboxylic acid]: the IC50 came to 21 nM.
In the case of `CN1CCN(C(=O)c2ccc3c(C4=CCC(C(=O)O)CC4)nn(C(=O)c4c(Cl)cccc4C(F)(F)F)c3c2)CC1=O` (centres unmarked) [Example 4N, 4-(1-(2-chloro-6-(trifluoromethyl)benzoyl)-6-(4-methyl-3-oxopiperazine-1-carbonyl)-1H-indazol-3-yl)cyclohex-3-enecarboxylic acid], the 50% inhibitory concentration (IC50) turned out to be 3 nM.
Regarding `C[C@H]1COCCN1C(=O)c1ccc2c(C3=CCC(C(=O)O)CC3)nn(C(=O)c3c(Cl)cccc3C(F)(F)F)c2c1` (stereo partly drawn) [Example 4O, 4-(1-(2-chloro-6-(trifluoromethyl)benzoyl)-6-((S)-3-methylmorpholinc-4-carbonyl)-1H-indazol-3-yl)cyclohex-3-enecarboxylic acid], the concentration for half-maximal inhibition (IC50) is 308 nM.
With `CN(C(=O)c1ccc2c(C3=CCC(C(=O)O)CC3)nn(C(=O)c3c(Cl)cccc3C(F)(F)F)c2c1)C1CCOCC1` (centres unmarked) [Example 4P, 4-(1-(2-chloro-6-(trifluoromethyl)benzoyl)-6-(methyl(tetrahydro-2H-pyran-4-yl)carbamoyl)-1H-indazol-3-yl)cyclohex-3-enecarboxylic acid], the IC50 was determined as 41 nM.
Turning to `C[C@@H]1COCCN1C(=O)c1ccc2c(C3=CCC(C(=O)O)CC3)nn(C(=O)c3c(Cl)cccc3C(F)(F)F)c2c1` (stereo partly drawn) [Example 4Q, 4-(1-(2-chloro-6-(trifluoromethyl)benzoyl)-6-((R)-3-methylmorpholine-4-carbonyl)-1H-indazol-3-yl)cyclohex-3-enecarboxylic acid], the IC50 was determined as 380 nM.
With `C[C@H]1CN(C(=O)c2ccc3c(C4=CCC(C(=O)O)CC4)nn(C(=O)c4c(Cl)cccc4C(F)(F)F)c3c2)CCO1` (stereo partly drawn) [Example 4R, 4-(1-(2-chloro-6-(trifluoromethyl)benzoyl)-6-((S)-2-methylmorpholine-4-carbonyl)-1H-indazol-3-yl)cyclohex-3-enecarboxylic acid], the concentration for half-maximal inhibition (IC50) came to 21 nM.
On to `CN(CCO)C(=O)c1ccc2c(C3=CCC(C(=O)O)CC3)nn(C(=O)c3c(Cl)cccc3C(F)(F)F)c2c1` (centres unmarked) [Example 4S, 4-(1-(2-chloro-6-(trifluoromethyl)benzoyl)-6-((2-hydroxyethyl)(methyl)carbamoyl)-1H-indazol-3-yl)cyclohex-3-enecarboxylic acid], for which the IC50 came to 40 nM.
In the case of `CC(C)NC(=O)c1ccc2c(C3=CCC(C(=O)O)CC3)nn(C(=O)c3c(Cl)cccc3C(F)(F)F)c2c1` (centres unmarked) [Example 4T, 4-(1-(2-chloro-6-(trifluoromethyl)benzoyl)-6-(isopropylcarbamoyl)-1H-indazol-3-yl)cyclohex-3-enecarboxylic acid] it was 1120 nM; in that of `CC(C)N(C)C(=O)c1ccc2c(C3=CCC(C(=O)O)CC3)nn(C(=O)c3c(Cl)cccc3C(F)(F)F)c2c1` (centres unmarked) [Example 4U, 4-(1-(2-chloro-6-(trifluoromethyl)benzoyl)-6-(isopropyl(methyl)carbamoyl)-1H-indazol-3-yl)cyclohex-3-enecarboxylic acid], 164 nM.
As to `COCCN(C)C(=O)c1ccc2c(C3=CCC(C(=O)O)CC3)nn(C(=O)c3c(Cl)cccc3C(F)(F)F)c2c1` (centres unmarked) [Example 4V, 4-(1-(2-chloro-6-(trifluoromethyl)benzoyl)-6-((2-methoxyethyl)(methyl)carbamoyl)-1H-indazol-3-yl)cyclohex-3-enecarboxylic acid], the half-inhibitory concentration (IC50) is 31 nM.
For `O=C(O)C1CC=C(c2nn(C(=O)c3c(Cl)cccc3C(F)(F)F)c3cc(C(=O)N4CC(O)C4)ccc23)CC1` (centres unmarked) [Example 4W, 4-(1-(2-chloro-6-(trifluoromethyl)benzoyl)-6-(3-hydroxyazetidine-1-carbonyl)-1H-indazol-3-yl)cyclohex-3-enecarboxylic acid], the concentration for half-maximal inhibition (IC50) amounted to 3 nM.
Take `O=C(O)C1CC=C(c2nn(C(=O)c3c(Cl)cccc3C(F)(F)F)c3cc(C(=O)N4CC(F)C4)ccc23)CC1` (centres unmarked) [Example 4X, 4-(1-(2-chloro-6-(trifluoromethyl)benzoyl)-6-(3-fluoroazetidine-1-carbonyl)-1H-indazol-3-yl)cyclohex-3-enecarboxylic acid]: the concentration for half-maximal inhibition (IC50) amounted to 3 nM.
With `O=C(O)C1CC=C(c2nn(C(=O)c3c(Cl)cccc3C(F)(F)F)c3cc(C(=O)N4CCCCC4)ccc23)CC1` (centres unmarked) [Example 4Y, 4-(1-(2-chloro-6-(trifluoromethyl)benzoyl)-6-(piperidine-1-carbonyl)-1H-indazol-3-yl)cyclohex-3-enecarboxylic acid], the half-inhibitory concentration (IC50) was 159 nM.
Regarding `CNCC(CO)OC(=O)c1ccc2c(C3=CCC(C(=O)O)CC3)nn(C(=O)c3c(Cl)cccc3C(F)(F)F)c2c1` (centres unmarked) [Example 4Z, 4-(1-(2-chloro-6-(trifluoromethyl)benzoyl)-6-(((1-hydroxy-3-(methylamino)propan-2-yl)oxy)carbonyl)-1H-indazol-3-yl)cyclohex-3-enecarboxylic acid], the IC50 stood at 258 nM.
